The values that follow come from patent publication US10604489B2, “Compounds for the treatment of pain” (priority 2018, dated 2020).

In general, EC50 refers to the concentration needed to bring the measured effect to its halfway point. Broadly, the Ki is a dissociation constant, usually derived from enzyme kinetics or from competition with a known ligand. A low value points to a stronger hold on the target.

Molecules are shown by their SMILES. Counter-ions that a name gives are not always drawn.

The target in one data set is human μ opioid receptor (Homo sapiens (Human), UniProt P35372). Put plainly: Alternate functional activity ([35S]GTPγS binding) assay, SPA beads. Format: biochemical. Conditions: alternate assay: [35S]GTPγS 0.020 nM, CHO cell membranes with WGA PVT SPA beads. On the procedure: The [^35S]GTPγS assay measures the functional properties of a compound by quantifying the level of G-protein activation following agonist binding in studies using stably transfected cells, and is considered to be a measure of the efficacy of a compound. Membranes from CHO (Chinese Hamster Ovary) cells that stably expressed one type of the cloned human opioid receptor human were used in the experiments. The assay buffer consisted of 50 mM Tris-HCl, pH 7.4, 3 mM MgCl2, 0.2 mM EGTA, 5 μM GDP, and 100 mM NaCl. CHO cell membranes stably expressing the human p opioid receptor were pre-incubated with scintillation proximity assay beads from PerkinElmer® (WGA PVT SPA) for 30 minutes, at 8 µg membrane and […] beads in a volume of 0.1 mL per reaction. In a final volume of 0.2 mL, 11 different concentrations of each test compound were incubated with the membrane-SPA bead mixture and a final concentration of 0.020 nM [35S]GTPγS for 1.5 hours with gentle shaking. Reactions were then incubated for 5 hours. Data are the mean EC50 values ±S.E.M. EC50 values (nM) for compounds 12, 16, 19, 20, 149, 151, 152, 157, 160, 161, 164-169, 172, 173, 180-197, and 199-207 are shown in Table 1.
(GTPγS is a poorly hydrolysed GTP analogue; its binding reports G protein activation.)

For another data set, the target named is μ-receptor (Homo sapiens (Human), UniProt P35372). Put plainly: Alternate receptor binding assay, competitive displacement of [3H]DAMGO. Conditions: alternate assay: 0.8 nM [3H]DAMGO, 5 mM MgCl2, CHO cell membrane protein, 120 min.
In data set [1] the test system is Male Sprague-Dawley rats. To be noted: maximum pCO2 within 2 hours of administration, subcutaneous, rat.
Data set [2] concerns Male Sprague-Dawley rats. Put plainly: animal or person. Conditions: sc; minimum dose at which maximal reversal of hind paw weight bearing (50±0.5%) was achieved; subcutaneous administration; rat; read-out: MEMD SC CFA. Format: in vivo, rat.

`COC1(c2cccc(C(N)=O)c2)C2CCCC1CN(C1CC3CCC(C1)O3)C2` (single isomer, unassigned) [Compound 16, hydrochloride]: the half-maximal effective concentration (EC50) on human μ opioid receptor is below 10 nM. At μ-receptor, this molecule showed a Ki below 1 nM.

With `COC1(c2ccnc(C(N)=O)c2)C2CCCC1CN(C1CC3CCC(C1)O3)C2` [Compound 12, 4-((1R,5S,9R)-3-((1R,3s,5S)-8-oxabicyclo[3.2.1]octan-3-yl)-9-methoxy-3-azabicyclo[3.3.1]nonan-9-yl)picolinamide hydrochloride], at human μ opioid receptor, the EC50 lay within 10 to 75 nM. The molecule further registered a Ki on μ-receptor (hydrochloride) below 1 nM.

Consider `COC1(c2cccc(C(N)=O)c2)C2CCCC1CN([C@@H](C)c1cnc[nH]1)C2` (stereo partly drawn) [Compound 19, 3-((1R,5S,9S)-3-((S)-1-(1H-imidazol-5-yl)ethyl)-9-methoxy-3-azabicyclo[3.3.1]nonan-9-yl)benzamide hydrochloride], for which, on human μ opioid receptor, the EC50 is below 10 nM. The molecule further had a Ki on μ-receptor below 1 nM.

Molecule `COC1(c2cccc(C(N)=O)c2)C2CCCC1CN([C@H](C)c1cnc[nH]1)C2` (stereo partly drawn) [Compound 20, 3-((1R,5S,9R)-3-((R)-1-(1H-imidazol-5-yl)ethyl)-9-methoxy-3-azabicyclo[3.3.1]nonan-9-yl)benzamide hydrochloride] showed an EC50 on human μ opioid receptor of 10 to 75 nM. For the same molecule, the Ki at μ-receptor was in the range of 1 to 5 nM.

`COC1(c2cccc(C(N)=O)c2)C2CCCC1CN(Cc1cnc(C)[nH]1)C2` [Compound 149, 3-((1R,5S,9r)-9-methoxy-34(2-methyl-1H-imidazol-4-yl)methyl)-3-azabicyclo[3.3.1]nonan-9-yl)benzamide hydrochloride]: the 50% effective concentration (EC50) on human μ opioid receptor is below 10 nM. The inhibitory constant (Ki) on μ-receptor is below 1 nM.

As for `COC1(c2cccc(C(N)=O)c2)C2CCCC1CN(C1CN(c3ccccc3)C1)C2` [Compound 151, 3-((1R,5S,9r)-9-methoxy-3-(1-phenylazetidin-3-yl)-3-azabicyclo[3.3.1]nonan-9-yl)benzamide (S)-2-hydroxysuccinate], the half-maximal effective concentration (EC50) at human μ opioid receptor was below 10 nM. The Ki at μ-receptor is below 1 nM.

For the molecule `COC1(c2cccc(C(N)=O)c2)C2CCCC1CN(C[C@H]1C[C@@H]3C[C@@H]3C1)C2` (stereo partly drawn) [Compound 152, 3-((1R,5s,9R)-3-((1R,3s,5S)-bicyclo[3.1.0]hexan-3-ylmethyl)-9-methoxy-3-azabicyclo[3.3.1]nonan-9-yl)benzamide hydrochloride], the EC50 at human μ opioid receptor was below 10 nM. This molecule also yielded an inhibition constant Ki at μ-receptor below 1 nM.

For the molecule `COC1(c2cccc(C(N)=O)c2)C2CCCC1CN(CCCF)C2` [Compound 157, 3-((1R,5S,9r)-3-(3-fluoropropyl)-9-methoxy-3-azabicyclo[3.3.1]nonan-9-yl)benzamide hydrochloride], the EC50 on human μ opioid receptor lay in the range of 10 to 75 nM. In addition, the Ki at μ-receptor is below 1 nM.

At human μ opioid receptor, `CCOC1(c2cccc(C(N)=O)c2)C2CCCC1CNC2.Cl` [Compound 160, 3-((1R,5S,9r)-9-ethoxy-3-azabicyclo[3.3.1]nonan-9-yl)benzamide] registered a half-maximal effective concentration (EC50) of 10 to 75 nM. The “<60 mmHg @ 10X CFA MEMD” value with Male Sprague-Dawley rats [1] (dose 10× CFA MEMD) is “+ (resulted in a maximum pCO2 value of less than 60 mmHg within 2 hours of administration)”. Also, the “<60 mmHg @ 100X CFA MEMD” value in the data set with Male Sprague-Dawley rats [1] (dose 100× CFA MEMD) was “+ (resulted in a maximum pCO2 value of less than 60 mmHg within 2 hours of administration)”. In addition, the minimal effective dose in the data set on Male Sprague-Dawley rats [2] amounted to 0.1 mg/kg. The same molecule returned a Ki at μ-receptor of 1 to 5 nM.

Molecule `CCOC1(c2cccc(C(N)=O)c2F)C2CCCC1CNC2` (stereo not shown) [Compound 180] had an EC50 on human μ opioid receptor above 75 nM. Moreover, the Ki at μ-receptor was above 5 nM.

Turning to `NC(=O)c1cccc(C2(OCC(F)F)C3CCCC2CNC3)c1` (stereo not shown) [Compound 182], the EC50 at human μ opioid receptor lay within 10 to 75 nM. For the same molecule, the Ki at μ-receptor was above 5 nM.

In turn, `CCOC1(c2ccc(F)c(C(N)=O)c2)C2CCCC1CNC2` (stereo not shown) [Compound 183] yielded a half-maximal effective concentration (EC50) at human μ opioid receptor above 75 nM. At μ-receptor, the Ki was above 5 nM.

Take `NC(=O)c1cccc(C2(OCCF)C3CCCC2CNC3)c1` (stereo not shown) [Compound 187]: the concentration for a half-maximal effect (EC50) on human μ opioid receptor fell in the range of 10 to 75 nM. In addition, the inhibition constant (Ki) on μ-receptor was above 5 nM.

Molecule `CCOC1(c2cc(C(N)=O)ccc2Cl)C2CCCC1CNC2` (stereo not shown) [Compound 188] showed an EC50 at human μ opioid receptor above 75 nM. The molecule further came in with a Ki on μ-receptor above 5 nM.

The molecule `COC1(c2ccnc(C(N)=O)c2)C2CCCC1CN(C1CCC(F)(F)CC1)C2` (stereo not shown) [Compound 195] came in with an EC50 on human μ opioid receptor above 75 nM. This molecule also had a Ki on μ-receptor of 1 to 5 nM.

The molecule `COC1(c2cccc(C(N)=O)c2)C2CCCC1CN(C1CCC(F)(F)CC1)C2` (stereo not shown) [Compound 196] yielded a 50% effective concentration (EC50) on human μ opioid receptor of 10 to 75 nM. The same molecule displayed a Ki on μ-receptor below 1 nM.

The molecule `COC1(c2ccnc(C(N)=O)c2)C2CCCC1CN([C@H]1C[C@@H]3[C@H](C1)C3(F)F)C2` (stereo partly shown) [Compound 197] gave an EC50 at human μ opioid receptor below 10 nM. In addition, the Ki on μ-receptor is below 1 nM.

`COC1(c2ccnc(C(N)=O)c2)C2CCCC1CN(CC1(F)CCOCC1)C2` (stereo not shown) [Compound 198] yielded a Ki at μ-receptor above 5 nM.

In the case of `COC1(c2cccc(C(N)=O)c2)C2CCCC1CN(C1C[C@@H]3C[C@@H]3C1)C2` (stereo partly shown) [Compound 199], the EC50 on human μ opioid receptor was below 10 nM. In addition, the Ki at μ-receptor was below 1 nM.

Take `COC1(c2cccc(C(N)=O)c2)C2CCCC1CN([C@H]1C[C@@H]3[C@H](C1)C3(F)F)C2` (stereo partly shown) [Compound 200]: on human μ opioid receptor, the EC50 was below 10 nM. Also, the Ki on μ-receptor was below 1 nM.

Regarding `COC1(c2ccnc(C(N)=O)c2)C2CCCC1CN(C1CC3CCC(C1)O3)C2` (stereo not shown) [Compound 202], the EC50 at human μ opioid receptor is above 75 nM. On μ-receptor, this molecule came in with an inhibition constant Ki above 5 nM.

Consider `COC1(c2cccc(C(N)=O)c2)C2CCCC1CN(C1CC3CCC(C1)O3)C2` (stereo not shown) [Compound 203], for which, on human μ opioid receptor, the EC50 was above 75 nM. The Ki at μ-receptor was 1 to 5 nM.
